Assay results taken from patent publication US20190225670A1, “COMPOUNDS AND METHODS FOR ACTIVATING TIE2 SIGNALING” (ASCLEPIX THERAPEUTICS, LLC, priority 2016, published 2019).
“Also recorded” adds a separate entry of the source.

How the values were obtained:
[1] = biological target: T1, α5 and β1 integrin subunits (Homo sapiens, UniProt P05556+P08648); assay: Duolink protein interaction analysis; assay type: cell-based; conditions: MEC monolayers; 100 μM AXT107 vs vehicle
T1 construct: host or cells: human dermal microvascular endothelial cells (MEC)
Protocol: Additionally, changes in the interaction between the α5 s and β1 subunits were further investigated using Duolink™ technology which can visualize individual interactions between α5 and β1 integrin subunits as distinct spots by fluorescence microscopy.
Glass bottom, 96-well plates were coated with FN1, seeded with MECs, as described above for the immunofluorescence experiments. After growing for forty-eight hours, cells were serum starved for three hours, treated with 100 μM AXT107 or DMSO vehicle for ninety minutes, washed twice with dPBS containing Ca^2+ and Mg^2+, and fixed in 10% neutral buffered formalin. Cells were blocked in 5% normal goat serum; 0.3% Triton X-100 in dPBS containing Ca^2+ and Mg^2+ for one hour and incubated overnight at 4° C. with rabbit anti-α5 integrin and mouse anti-β1 integrin antibodies in PBS containing Ca^2+ and Mg^2+ with 1% BSA and 0.1% Triton X-100. Interaction spots were developed using DUOLINK green detection reagent according to the manufacturer's instructions and detected using the BD pathway 855 system.

[2] = test system: Erk1/2; assay: Western blot of phospho-Erk1/2 in MEC lysates treated with Ang2 and AXT107; assay type: cell-based, human; conditions: AXT107 and Ang2, all tested conditions
Protocol: (§1) For Ang1/2 signaling investigations, cell culture dishes (10 cm diameter) were coated with 5 μg/ml fibronectin (FN1; Sigma-Aldrich, St. Louis, Mo.) for two hours at 37° C. The FN1 solution was then removed by aspiration and 5×10^6 microvascular endothelial cells (MECs; Lonza, Walkersville, Md.) were plated in EGM-2MV media (Lonza) and cultured for forty-eight hours at 37° C. The cells were then serum starved for sixteen hours in serum-free EGM-2 base media (Lonza). AXT107 (0-100 μM, as indicated) was subsequently added to each culture and incubated for seventy-five minutes at 37° C. The cultures were then treated with 1 mM sodium vanadate (New England Biolabs, Ipswich, Mass.) for fifteen minutes to enhance the phospho-Tie2 signal followed by stimulation with 200 ng/ml angiopoietin (R&D Systems, Minneapolis, Minn.) for an additional fifteen minutes. […] Specific proteins were identified by Western blot, using the following primary antibodies: Cell Signaling—phospho-Tie2 (Y992) (Cat#: 4221), Tie2 (Cat#: 7403), phospho-Stat3 (Y705) (Cat#: 4113), Stat3 (Cat#: 4904), phospho-Akt (S473) (Cat#: 4058), Akt (Cat#: 9272), phospho-p44/42 MAPK (T202/Y204) (Cat#: 4370), p44/42 MAPK (Cat#: 4695); BD Transduction Laboratories—β1 integrin (Cat#: 610467); Millipore—α5 integrin (Cat#: AB1928) and detected with HRP-conjugated goat anti-rabbit and sheep anti-mouse secondary antibodies (GE healthcare).

[3] = test system: MEC monolayers; assay: FITC Transwell permeability assay; assay type: cell-based, human
Protocol: The integrity of these junctions is also important for the regulation of monolayer permeability by controlling the size of intercellular openings. The effect of the AXT107 on EC permeability was further investigated by the transendothelial diffusion of FITC-labeled dextran across MEC monolayers seeded onto permeable Transwell® substrates.
Transwell, twenty-four-well inserts (Corning) were coated with 7.5 μg/cm^2 FN1 for two hours at 37° C., aspirated, and then dried for thirty minutes at room temperature. Wells were then seeded with 7.5×10^4 MECs in 100 μl of EBM-2 media (without phenol red) and allowed to settle for thirty minutes at room temperature. 1 ml of EGM-2 media was then added to the bottom chamber and an additional 200 μl to the top chamber. The plate was incubated for twenty-four hours at 37° C. after which the media was aspirated and an additional 7.5×10^4 MECs were plated in each well as described above. After forty-eight hours at 37° C., the media was aspirated from both chambers and the cells were washed twice in dPBS containing Ca^2+ and Mg^2+, once with EBM-2 media (without phenol red) and serum starved in EBM-2 media applied to both chambers for two hours at 37° C. After this incubation, 100 μM AXT107 or an equivalent amount of DMSO vehicle was added and incubated for an additional ninety minutes. In the top chamber, the cells were then treated with 200 ng/ml Ang2, 100 ng/ml VEGFA, both, or PBS control and in the bottom chamber, the cells were then treated with 25 μg/ml FITC-Dextran (40 kDa MW). AXT107 was also added in both chambers to maintain a concentration of 100 μM. After three hours, 10 μl was removed from the top chamber of each well and mixed with 90 μl of water in a clear bottom, 96-well plate. Fluorescence values for each sample were calculated using a Perkin Elmer plate reader.

[4] = test system: Tie2; assay: Western blot of phospho-Tie2 (Y992) in MEC monolayers treated with AXT107 and angiopoietin; assay type: cell-based, human
Protocol: (§2) A confluent monolayer of human microvascular endothelial cells (HMEC) was serum starved with EBM-2 overnight. After a 90 min treatment with AXT107 at concentrations of 0, 10, 32, and 100 μM, the cells were treated for 15 min with 1 mM sodium orthovanadate. Next the cells were treated with Angiopoietin-2 (Ang-2) at 200 ng/mL for 15 min. Following cell lysis, the lysates were immunoblotted for pTie2 (Y992), pSTAT3 (Y705), and pAkt (S473).
To investigate the effects of the integrin inhibitor AXT107 on Tie2 signaling, confluent monolayers of microvascular endothelial cells (MECs) on fibronectin-coated dishes were treated with various concentrations of AXT107 followed by exposure to the Tie2 ligands Ang1 or Ang2.
For Ang1/2 signaling investigations, cell culture dishes (10 cm diameter) were coated with 5 μg/ml fibronectin (FN1; Sigma-Aldrich, St. Louis, Mo.) for two hours at 37° C. The FN1 solution was then removed by aspiration and 5×10^6 microvascular endothelial cells (MECs; Lonza, Walkersville, Md.) were plated in EGM-2MV media (Lonza) and cultured for forty-eight hours at 37° C. The cells were then serum starved for sixteen hours in serum-free EGM-2 base media (Lonza). AXT107 (0-100 μM, as indicated) was subsequently added to each culture and incubated for seventy-five minutes at 37° C. The cultures were then treated with 1 mM sodium vanadate (New England Biolabs, Ipswich, Mass.) for fifteen minutes to enhance the phospho-Tie2 signal followed by stimulation with 200 ng/ml angiopoietin (R&D Systems, Minneapolis, Minn.) for an additional fifteen minutes. The cells were then transferred to ice, washed twice with ice cold Dulbecco's phosphate-buffered saline (dPBS) containing Ca^2+ and Mg^2+, and collected by scraping in 500 μl of 1×Blue Loading Buffer (Cell Signaling, Danvers, Mass.). Lysate samples were then sonicated, boiled, and resolved by SDS-PAGE. Specific proteins were identified by Western blot, using the following primary antibodies: Cell Signaling—phospho-Tie2 (Y992) (Cat#: 4221), Tie2 (Cat#: 7403), phospho-Stat3 (Y705) (Cat#: 4113), Stat3 (Cat#: 4904), phospho-Akt (S473) (Cat#: 4058), Akt (Cat#: 9272), phospho-p44/42 MAPK (T202/Y204) (Cat#: 4370), p44/42 MAPK (Cat#: 4695); BD Transduction Laboratories—β1 integrin (Cat#: 610467); Millipore—α5 integrin (Cat#: AB1928) and detected with HRP-conjugated goat anti-rabbit and sheep anti-mouse secondary antibodies (GE healthcare).

[5] = test system: STAT3; assay: Western blot of phospho-STAT3 (Y705) in MEC lysates treated with Ang2 and AXT107; assay type: cell-based, human
Protocol: as §2
as §1, with “C.” for “C. The cells were then serum starved for sixteen hours in serum-free EGM-2 base media (Lonza). AXT107 (0-100 μM, as indicated) was subsequently added to each culture and incubated for seventy-five minutes at 37° C. The cultures were then treated with 1 mM sodium vanadate (New England Biolabs, Ipswich, Mass.) for fifteen minutes to enhance the phospho-Tie2 signal followed by stimulation with 200 ng/ml angiopoietin (R&D Systems, Minneapolis, Minn.) for an additional fifteen minutes.”

T1 sequence (P08648 42-894 limits assumed): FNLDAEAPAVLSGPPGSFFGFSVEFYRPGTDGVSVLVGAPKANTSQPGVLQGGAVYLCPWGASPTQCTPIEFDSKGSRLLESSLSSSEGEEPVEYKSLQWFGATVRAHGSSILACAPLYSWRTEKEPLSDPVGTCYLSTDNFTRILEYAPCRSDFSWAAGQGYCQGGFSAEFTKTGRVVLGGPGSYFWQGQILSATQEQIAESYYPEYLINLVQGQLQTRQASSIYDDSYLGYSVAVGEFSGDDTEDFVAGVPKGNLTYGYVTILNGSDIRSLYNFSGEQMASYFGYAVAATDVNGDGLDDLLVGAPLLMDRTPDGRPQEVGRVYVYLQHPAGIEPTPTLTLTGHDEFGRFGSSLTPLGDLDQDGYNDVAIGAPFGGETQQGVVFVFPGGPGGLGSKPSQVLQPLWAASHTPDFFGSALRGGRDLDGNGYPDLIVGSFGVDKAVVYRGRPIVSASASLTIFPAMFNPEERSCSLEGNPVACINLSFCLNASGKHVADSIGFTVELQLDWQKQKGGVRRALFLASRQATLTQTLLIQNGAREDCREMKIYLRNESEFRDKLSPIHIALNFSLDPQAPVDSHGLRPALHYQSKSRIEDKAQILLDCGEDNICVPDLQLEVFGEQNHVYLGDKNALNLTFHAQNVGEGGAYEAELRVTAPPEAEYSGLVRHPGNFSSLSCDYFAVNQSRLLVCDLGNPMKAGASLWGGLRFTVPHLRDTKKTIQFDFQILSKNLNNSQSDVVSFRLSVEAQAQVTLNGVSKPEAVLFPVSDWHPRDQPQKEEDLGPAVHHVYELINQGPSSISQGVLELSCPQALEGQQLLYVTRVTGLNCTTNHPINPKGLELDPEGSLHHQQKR
T1 sequence (P08648 895-1049 limits assumed): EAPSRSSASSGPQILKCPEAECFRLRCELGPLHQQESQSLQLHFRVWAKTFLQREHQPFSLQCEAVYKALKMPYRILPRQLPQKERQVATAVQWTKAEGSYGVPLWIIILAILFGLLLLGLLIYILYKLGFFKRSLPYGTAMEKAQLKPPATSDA
T1 sequence (P05556 21-798): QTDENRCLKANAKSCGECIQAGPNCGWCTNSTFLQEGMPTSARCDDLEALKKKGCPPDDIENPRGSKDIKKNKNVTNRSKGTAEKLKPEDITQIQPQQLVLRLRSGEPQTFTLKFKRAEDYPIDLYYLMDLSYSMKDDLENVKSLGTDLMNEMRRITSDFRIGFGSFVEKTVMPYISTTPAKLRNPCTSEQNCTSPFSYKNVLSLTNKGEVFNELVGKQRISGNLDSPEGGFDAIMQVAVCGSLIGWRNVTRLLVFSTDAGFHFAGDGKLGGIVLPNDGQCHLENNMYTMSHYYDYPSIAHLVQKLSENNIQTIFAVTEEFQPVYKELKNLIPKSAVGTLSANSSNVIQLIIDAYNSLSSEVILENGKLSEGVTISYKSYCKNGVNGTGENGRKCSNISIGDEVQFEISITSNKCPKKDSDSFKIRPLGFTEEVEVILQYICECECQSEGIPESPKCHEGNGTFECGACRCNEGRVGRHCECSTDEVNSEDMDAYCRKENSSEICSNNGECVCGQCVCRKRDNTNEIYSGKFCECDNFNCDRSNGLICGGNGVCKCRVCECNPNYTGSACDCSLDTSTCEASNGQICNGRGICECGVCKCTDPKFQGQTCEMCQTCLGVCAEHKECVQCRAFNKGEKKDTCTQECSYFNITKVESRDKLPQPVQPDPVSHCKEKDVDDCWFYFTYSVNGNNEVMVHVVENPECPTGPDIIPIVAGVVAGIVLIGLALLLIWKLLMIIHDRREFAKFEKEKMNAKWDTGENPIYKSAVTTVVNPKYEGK

LRRFSTAPFAFIDINDVINF [AXT107]
interactions between α5 and β1 integrin subunits [1]: significantly reduced | Erk1/2 phosphorylation [2]: remained constant | FITC-dextran diffusion into the top chamber ([3]; Ang2 alone added to monolayers pre-incubated with 100 μM AXT107, vs growth factor alone): significant decrease | FITC-dextran diffusion into the top chamber ([3]; Ang2 in combination with VEGF, monolayers pre-incubated with 100 μM AXT107, vs growth factors alone): significant decrease | FITC-dextran diffusion ([3]; VEGF in presence vs absence of peptide): similar, but non-significant trend | FITC-dextran diffusion across the monolayer, single treatment ([3]; each agent alone): influenced FITC-dextran diffusion across the monolayer | Tie2 phosphorylation ([4]; AXT107 0-100 μM, then 200 ng/ml Ang2 15 min): increased phosphorylation; also recorded: significant, dose-dependent increase | Ang1 activity (Tie2 phosphorylation) ([4]; AXT107 followed by Ang1, data not shown): did not significantly influence | total protein levels of Tie2 ([4]; AXT107 with angiopoietin): remained unchanged; also recorded: does not influence total levels of Tie2 | phosphorylation by peptide alone ([4]; in absence of either ligand): not induced | STAT3 phosphorylation [5]: increased phosphorylation
